# Measurements reported in PubChem BioAssay AID2060893 (Molecular Pharmacology Branch, DTP, NCI, 2025).
# Where “and” joins values, the source holds several entries; their conditions need not be identical. Equal entries are not always repeated.
# System: K86415-001-R-J1-PDC complex spheroids, viability
# Test: Anticancer human tumor K86415-001-R-J1-PDC patient-derived lung adenocarcinoma cell line growth inhibition [RAS]
# Settings: compound 0.0316 µM; stronger effect = lower value
# Description: RAS pathway inhibitors in Combinations in Complex Spheroids
# A high-throughput screen of multi-cell type tumor spheroids was designed to identify active combinations of RAS pathway inhibitors and targeted small molecules. Complex spheroids include a stromal component modeled by human endothelial cells (HUVEC) and fibroblasts modeled by human mesenchymal stem cells (MSCs). The concentration ranges selected for each drug and investigational agent were based upon clinically achievable concentrations if the clinical Cmax of the agent was known.
# Compounds. The drugs and investigational agents: abemaciclib (NSC768073), cobimetinib (NSC768068), divarasib (GDC6063, NSC841802), docetaxel (NSC628503), GDC-1971 (RLY-1971, NSC841576), gemcitabine (NSC613327), inavolisib (NSC800729), ipatasertib (NSC767898), KB-0742 (NSC834161), MRTX-1133 (NSC836407), osimertinib (NSC779217), RMC-4630 (NSC839698), RMC-6236 (NSC851965), RMC-6291 (NSC852671), Ro-3306 (NSC812927), sapanisertib (NSC764658), SN-38 (NSC673596), staurosporine (NSC755774), SY5609 (NSC837396), and tovorafenib (DAY101, NSC766906), were obtained from the National Cancer Institute (NCI) Developmental Therapeutics Program Chemical Repository. The FDA-approved anticancer drug set is available from the NCI Developmental Therapeutics Program. […] The stock solutions were prepared in dimethyl sulfoxide (DMSO, Sigma-Aldrich, St. Louis, MO, cat. D2650) at 800-fold the tested concentration and stored at -70 degrees C prior to their use. All drugs and investigational agents were tested over a range starting from a high concentration at or near the clinical Cmax and decreasing in half-log increments. If the clinical Cmax for an agent had not been determined, the highest concentration tested was 10 microM.
# Cell Culture. All cells were maintained in an incubator at 37 degrees C and 5% CO2 with 95% humidity. The PDC lines were cultured according to standard operating procedures established by the NCI PDMR. All PDCs were thawed and cultured in Matrigel-coated flasks prepared with a working solution of 1X Ham's F-12 nutrient mix, without supplementation (Invitrogen, Waltham, MA, cat. 11765054), 100 U/mL penicillin-streptomycin (Invitrogen, cat. 15140122), and 2.5% Matrigel (Corning Inc., Corning, NY, cat. 354248) for the first three passages. The 362531-283-R-J2-PDC and 782815-120-R-J1-PDC lines were cultured in 6C/Colon 1B media, which includes advanced DMEM/F-12 (Thermo Fisher Scientific, cat. 12634028), 10 mM HEPES (Thermo Fisher Scientific, cat. 15630080), 1X GlutaMAX supplement (Thermo Fisher Scientific, cat. 35050061), 0.1 mg/mL primocin (InvivoGen, San Diego, CA, cat. ant-pm-2), 10% defined fetal bovine serum, heat inactivated (HyClone Laboratories Inc., Logan, UT, cat. SH30070.03HI), 50% L-WRN conditioned media (ATCC, cat. CRL-3276), 1.25 mM N-Acetyl-L-cysteine (Sigma-Aldrich, cat. A9165), 10 mM nicotinamide (Sigma-Aldrich, cat. N0636), 1X B-27 supplement (Thermo Fisher Scientific, cat. 17504044), 1X N-2 supplement (Thermo Fisher Scientific, cat. 17502048), 50 ng/mL human EGF (Thermo Fisher Scientific, cat. PHG0311), and 10 microM Y-27632 dihydrochloride (Tocris Bioscience, cat. 1254). The K12877-001-R-J1-PDC line was cultured in 6I media, which includes all 6C/Colon 1B media plus 10 ng/mL human FGF-10 (PeproTech, cat. 100-26), 1 ng/mL human FGF-2 (PeproTech, cat. 100-18B), 1 µM prostaglandin E2 (Tocris Bioscience, cat. 2296), […] hydrocortisone (Sigma-Aldrich, cat. H4001), and […] bovine insulin (Sigma-Aldrich, cat. I6634). The K86415-001-R-J1-PDC line was cultured in 6D media, which includes all 6C/Colon 1B media components minus the L-WRN conditioned media. The 485176-168-R4-J1-PDC was cultured in PANC media, which includes all 6C/Colon 1B media plus 100 ng/mL human FGF-10 (PeproTech, cat. 100-26), 500 nM SB-431542 (Selleckchem, cat. S1067), and 10 nM gastrin (Tocris Bioscience, cat. 3006). […]
# 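Also: spheroids exposed to agents for seven days before readout.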
row,SMILES,"viability, T/C"
1,CCN1CCN(Cc2ccc(Nc3ncc(F)c(-c4cc(F)c5nc(C)n(C(C)C)c5c4)n3)nc2)CC1,78.5% [middle of 4 runs]
2,O=C(c1ccc(F)c(F)c1Nc1ccc(I)cc1F)N1CC(O)([C@@H]2CCCCN2)C1,59% [middle of 4 runs]

# Same assay, conditions: compound 0.0949 µM; stronger effect = lower value
row,SMILES,"viability, T/C"
1,CC1(C)CCC(Nc2ncc(C(F)(F)F)c(-c3c[nH]c4c(P(C)(C)=O)c(C#N)ccc34)n2)CN1 (configuration not stated),60.8% [middle of 4 runs]
2,CCc1c2c(nc3ccc(O)cc13)-c1cc3c(c(=O)n1C2)COC(=O)[C@]3(O)CC,13.3% [middle of 4 runs]
3,CCn1c(-c2cc(N3CCN(C)CC3)cnc2C(C)OC)c2c3cc(ccc31)-c1csc(n1)CC(NC(=O)C1CC1C)C(=O)N1CCCC(N1)C(=O)OCC(C)(C)C2 (configuration not stated),3.96% [middle of 8 runs]
4,CCn1c(-c2cccnc2C(C)OC)c2c3cc(ccc31)N1CCOC(CC(NC(=O)C(C(C)C)N(C)C(=O)C3(F)CCN(C(=O)C#CC(C)(C)N(C)C)CC3)C(=O)N3CCCC(N3)C(=O)OCC(C)(C)C2)C1 (configuration not stated),14.9% [middle of 8 runs]

# Same assay, conditions: compound 0.1 µM; stronger effect = lower value
row,SMILES,"viability, T/C"
1,C=CC(=O)N1CCN(c2nc(OCC3CCCN3C)nc3c(F)c(-c4nc(N)cc(C)c4C(F)(F)F)c(Cl)cc23)C(C)C1 (configuration not stated),9.89% [middle of 12 runs]
2,C=CC(=O)Nc1cc(Nc2nccc(-c3cn(C)c4ccccc34)n2)c(OC)cc1N(C)CCN(C)C,85.1% (2×) and 93.4% and 76.6%
3,CC(C)n1nc(-c2ccc3oc(N)nc3c2)c2c(N)ncnc21,32.2% [middle of 4 runs]
4,CCN1CCN(Cc2ccc(Nc3ncc(F)c(-c4cc(F)c5nc(C)n(C(C)C)c5c4)n3)nc2)CC1,71.3% [middle of 4 runs]
5,O=C(c1ccc(F)c(F)c1Nc1ccc(I)cc1F)N1CC(O)([C@@H]2CCCCN2)C1,46% [middle of 4 runs]

# Same assay, conditions: compound 0.3 µM; stronger effect = lower value
row,SMILES,"viability, T/C"
1,CC1(C)CCC(Nc2ncc(C(F)(F)F)c(-c3c[nH]c4c(P(C)(C)=O)c(C#N)ccc34)n2)CN1 (configuration not stated),60.1% [middle of 4 runs]
2,CCc1c2c(nc3ccc(O)cc13)-c1cc3c(c(=O)n1C2)COC(=O)[C@]3(O)CC,5.27% [middle of 4 runs]
3,CCn1c(-c2cc(N3CCN(C)CC3)cnc2C(C)OC)c2c3cc(ccc31)-c1csc(n1)CC(NC(=O)C1CC1C)C(=O)N1CCCC(N1)C(=O)OCC(C)(C)C2 (configuration not stated),3.36% [middle of 8 runs]
4,CCn1c(-c2cccnc2C(C)OC)c2c3cc(ccc31)N1CCOC(CC(NC(=O)C(C(C)C)N(C)C(=O)C3(F)CCN(C(=O)C#CC(C)(C)N(C)C)CC3)C(=O)N3CCCC(N3)C(=O)OCC(C)(C)C2)C1 (configuration not stated),14% [middle of 8 runs]

# Same assay, conditions: compound 0.316 µM; stronger effect = lower value
row,SMILES,"viability, T/C"
1,C=CC(=O)N1CCN(c2nc(OCC3CCCN3C)nc3c(F)c(-c4nc(N)cc(C)c4C(F)(F)F)c(Cl)cc23)C(C)C1 (configuration not stated),10.8% [middle of 12 runs]
2,C=CC(=O)Nc1cc(Nc2nccc(-c3cn(C)c4ccccc34)n2)c(OC)cc1N(C)CCN(C)C,67.2% [middle of 4 runs]
3,CCN1CCN(Cc2ccc(Nc3ncc(F)c(-c4cc(F)c5nc(C)n(C(C)C)c5c4)n3)nc2)CC1,70.2% [middle of 4 runs]
4,O=C(c1ccc(F)c(F)c1Nc1ccc(I)cc1F)N1CC(O)([C@@H]2CCCCN2)C1,22.4% [middle of 4 runs]

# Same assay, conditions: compound 1 µM; stronger effect = lower value
row,SMILES,"viability, T/C"
1,C=CC(=O)N1CCN(c2nc(OCC3CCCN3C)nc3c(F)c(-c4nc(N)cc(C)c4C(F)(F)F)c(Cl)cc23)C(C)C1 (configuration not stated),10.7% [middle of 11 runs]
2,C=CC(=O)Nc1cc(Nc2nccc(-c3cn(C)c4ccccc34)n2)c(OC)cc1N(C)CCN(C)C,40.9% [middle of 4 runs]
3,CCN1CCN(Cc2ccc(Nc3ncc(F)c(-c4cc(F)c5nc(C)n(C(C)C)c5c4)n3)nc2)CC1,71.4% [middle of 4 runs]
4,O=C(c1ccc(F)c(F)c1Nc1ccc(I)cc1F)N1CC(O)([C@@H]2CCCCN2)C1,8.88% [middle of 4 runs]

# Same assay, conditions: compound alone; run of 07/09/2024
row,SMILES,IC50 [nM]
1,CCn1c(-c2cccnc2C(C)OC)c2c3cc(ccc31)N1CCOC(CC(NC(=O)C(C(C)C)N(C)C(=O)C3(F)CCN(C(=O)C#CC(C)(C)N(C)C)CC3)C(=O)N3CCCC(N3)C(=O)OCC(C)(C)C2)C1 (configuration not stated),< 0.949

# Same assay, conditions: compound alone; run of 07/15/2024
row,SMILES,IC50 [nM]
1,C=CC(=O)N1CCN(c2nc(OCC3CCCN3C)nc3c(F)c(-c4nc(N)cc(C)c4C(F)(F)F)c(Cl)cc23)C(C)C1 (configuration not stated),< 3.16

# Same assay, conditions: curve of compound
row,SMILES,IC50
1,C=CC(=O)N1CCN(c2nc(OCC3CCCN3C)nc3c(F)c(-c4nc(N)cc(C)c4C(F)(F)F)c(Cl)cc23)C(C)C1 (configuration not stated),< 3.16 nM
2,C=CC(=O)Nc1cc(Nc2nccc(-c3cn(C)c4ccccc34)n2)c(OC)cc1N(C)CCN(C)C,659 nM [middle of 4 runs]
3,CC(C)n1nc(-c2ccc3oc(N)nc3c2)c2c(N)ncnc21,52.6 nM [middle of 4 runs]
4,CC1(C)CCC(Nc2ncc(C(F)(F)F)c(-c3c[nH]c4c(P(C)(C)=O)c(C#N)ccc34)n2)CN1 (configuration not stated),> 300 nM
5,CCN1CCN(Cc2ccc(Nc3ncc(F)c(-c4cc(F)c5nc(C)n(C(C)C)c5c4)n3)nc2)CC1,> 1000 nM
6,CCc1c2c(nc3ccc(O)cc13)-c1cc3c(c(=O)n1C2)COC(=O)[C@]3(O)CC,2.52 nM [middle of 4 runs]
7,O=C(c1ccc(F)c(F)c1Nc1ccc(I)cc1F)N1CC(O)([C@@H]2CCCCN2)C1,68 nM [middle of 4 runs]
